{"source": "patent US20260151345A1", "about": "“FAST-DISSOLVING DOSAGE FORMS AND USES THEREOF” (Astrocyte Pharmaceuticals, Inc., priority 2022, published 2026)", "key": {"[1]": {"assay": "Pharmacokinetics / bioavailability after oral disintegrating tablet dose", "type": "in vivo, male Beagle dogs", "conditions": "for AUC(0-t) / AUC(0-inf) / Cmax / Tmax / half-life: po, 50.75 mg", "description": "The purpose of this study was to evaluate the bioavailability of Compound A following administration of the ODT formulation. Animals were administered Compound A, as described in the following table.\n(§1) Dosing occurred at 50.75 mg/dose. The ODT was placed on the dog's tongue and the mouth held shut for approximately 30 seconds to allow the material to dissolve. In each case, the tablet quickly formed a white paste that was adhered to the tongue and was not swallowed whole.\nWhole blood samples were collected from all animals as noted in the following table for determination of test article exposure.\n• Method: LC-MS/MS • Column: Restek Raptor ARC-18 2.7 μm (30×2.1 mm) • Mobile Phase A: 0.1% Formic Acid in Water • Mobile Phase B: 0.1% Formic Acid in Acetonitrile • Ionization: (±) ESI with Ion Spray • Analyte: Compound A • MRM: m/z 324.200/182.200 amu • Internal Standard: Labetalol • MRM: m/z 329.200/294.200 amu • Assay Range (LLOQ and ULOQ): 1-5000 ng/mL\nPharmacokinetic concentration-time data for Compound A was analyzed using non-compartmental methods (Phoenix® WinNonlin® Version 8.1) with nominal sampling times and dosages. The following parameters were calculated whenever possible and as data allowed: Volume of distribution, Clearance, tl/2, C0/Cmax, Tmax, % F. and AUC. Additional parameters may have been calculated as appropriate. Descriptive statistics were generated using Phoenix WinNonlin."}, "male Beagle dogs": {"test_system": "male Beagle dogs", "assay": "Tolerability (cageside observations) after ODT dose", "type": "in vivo", "conditions": "50.75 mg/dose via ODT", "description": "as §1\nCageside Observations, General signs of toxicity including fecal and urine quality, were completed approximately 1 hour post dose on dose days."}, "[2]": {"conditions": "single ODT dose 50.75 mg/dose, male Beagle dogs"}}, "note": "“And” between values parts separate entries of the source, which are not always exact repeats. Equal entries are not always repeated. Where two headings read alike, the source gives them in different places."}
{"smiles": "CSc1nc(N)c2ncn([C@H]3[C@H](O)[C@H](O)[C@]4(CO)C[C@H]34)c2n1", "note": "[Compound A]", "values": [{"measurement": "Compound A Plasma Concentration, individual animals", "setting": "[1]; 0.25 hr postdose, ODT 50.75 mg/dose, male Beagle dogs", "result": "356 ng/mL and 309 ng/mL and 352 ng/mL and 114 ng/mL"}, {"measurement": "Compound A Plasma Concentration, individual animals", "setting": "[1]; 0.5 hr postdose, ODT 50.75 mg/dose, male Beagle dogs", "result": "2300 ng/mL and 1840 ng/mL and 1690 ng/mL and 622 ng/mL"}, {"measurement": "Compound A Plasma Concentration, individual animals", "setting": "[1]; 1 hr postdose, ODT 50.75 mg/dose, male Beagle dogs", "result": "2370 ng/mL and 2510 ng/mL and 1810 ng/mL"}, {"measurement": "Compound A Plasma Concentration, individual animals", "setting": "[1]; 2 hr postdose, ODT 50.75 mg/dose, male Beagle dogs", "result": "1990 ng/mL and 2070 ng/mL and 1530 ng/mL"}, {"measurement": "Compound A Plasma Concentration, individual animals", "setting": "[1]; 4 hr postdose, ODT 50.75 mg/dose, male Beagle dogs", "result": "1100 ng/mL and 1160 ng/mL and 798 ng/mL"}, {"measurement": "Compound A Plasma Concentration, individual animals", "setting": "[1]; 8 hr postdose, ODT 50.75 mg/dose, male Beagle dogs", "result": "319 ng/mL and 413 ng/mL and 248 ng/mL"}, {"measurement": "Compound A Plasma Concentration, individual animals", "setting": "[1]; 24 hr postdose, ODT 50.75 mg/dose, male Beagle dogs", "result": "132 ng/mL and 48.3 ng/mL and 119 ng/mL and 28.8 ng/mL"}, {"measurement": "Percent F, Mean", "setting": "[1]; N=4, single ODT dose, 4.66 mg/kg dose used for calculation, estimated value", "result": 114, "unit": "%"}, {"measurement": "concentration at 0.25 h", "setting": "[1]; male, Beagle, dog, plasma, oral, 50.75 mg/dose, 0.25 hr postdose, N=4, ODT 50.75 mg/dose, male Beagle dogs, read-out: Compound A Plasma Concentration, Mean", "result": 283, "unit": "ng/mL"}, {"measurement": "concentration at 0.5 h", "setting": "[1]; male, Beagle, dog, plasma, oral, 50.75 mg/dose, 0.5 hr postdose, N=4, ODT 50.75 mg/dose, male Beagle dogs, read-out: Compound A Plasma Concentration, Mean", "result": 1610, "unit": "ng/mL"}, {"measurement": "concentration at 1 h", "setting": "[1]; male, Beagle, dog, plasma, oral, 50.75 mg/dose, 1 hr postdose, N=4, ODT 50.75 mg/dose, male Beagle dogs, read-out: Compound A Plasma Concentration, Mean", "result": 2190, "unit": "ng/mL"}, {"measurement": "concentration at 1 h", "setting": "[1]; male, Beagle, dog, plasma, oral, 50.75 mg/dose, 1 hr postdose, ODT 50.75 mg/dose, male Beagle dogs, read-out: Compound A Plasma Concentration, individual animals", "result": 2080, "unit": "ng/mL"}, {"measurement": "concentration at 2 h", "setting": "[1]; male, Beagle, dog, plasma, oral, 50.75 mg/dose, 2 hr postdose, N=4, ODT 50.75 mg/dose, male Beagle dogs, read-out: Compound A Plasma Concentration, Mean", "result": 1810, "unit": "ng/mL"}, {"measurement": "concentration at 2 h", "setting": "[1]; male, Beagle, dog, plasma, oral, 50.75 mg/dose, 2 hr postdose, ODT 50.75 mg/dose, male Beagle dogs, read-out: Compound A Plasma Concentration, individual animals", "result": 1650, "unit": "ng/mL"}, {"measurement": "concentration at 4 h", "setting": "[1]; male, Beagle, dog, plasma, oral, 50.75 mg/dose, 4 hr postdose, N=4, ODT 50.75 mg/dose, male Beagle dogs, read-out: Compound A Plasma Concentration, Mean", "result": 1010, "unit": "ng/mL"}, {"measurement": "concentration at 4 h", "setting": "[1]; male, Beagle, dog, plasma, oral, 50.75 mg/dose, 4 hr postdose, ODT 50.75 mg/dose, male Beagle dogs, read-out: Compound A Plasma Concentration, individual animals", "result": 964, "unit": "ng/mL"}, {"measurement": "concentration at 8 h", "setting": "[1]; male, Beagle, dog, plasma, oral, 50.75 mg/dose, 8 hr postdose, N=4, ODT 50.75 mg/dose, male Beagle dogs, read-out: Compound A Plasma Concentration, Mean", "result": 354, "unit": "ng/mL"}, {"measurement": "concentration at 8 h", "setting": "[1]; male, Beagle, dog, plasma, oral, 50.75 mg/dose, 8 hr postdose, ODT 50.75 mg/dose, male Beagle dogs, read-out: Compound A Plasma Concentration, individual animals", "result": 434, "unit": "ng/mL"}, {"measurement": "concentration at 24 h", "setting": "[1]; male, Beagle, dog, plasma, oral, 50.75 mg/dose, 24 hr postdose, N=4, ODT 50.75 mg/dose, male Beagle dogs, read-out: Compound A Plasma Concentration, Mean", "result": 82, "unit": "ng/mL"}, {"measurement": "AUC(0-t)", "setting": "[1]; male, Beagle, dog, plasma, N=4, single ODT dose 50.75 mg/dose, male Beagle dogs, read-out: AUC0-24, Mean", "result": 12200, "unit": "ng·h/mL"}, {"measurement": "AUC(0-inf)", "setting": "[1]; male, Beagle, dog, plasma, N=4, single ODT dose 50.75 mg/dose, male Beagle dogs, read-out: AUCinf, Mean", "result": 13000, "unit": "ng·h/mL"}, {"measurement": "Cmax", "setting": "[1]; male, Beagle, dog, plasma, N=4, single ODT dose 50.75 mg/dose, male Beagle dogs, read-out: Cmax, Mean", "result": 2250, "unit": "ng/mL"}, {"measurement": "Tmax", "setting": "[1]; male, Beagle, dog, plasma, N=4, single ODT dose 50.75 mg/dose, male Beagle dogs, read-out: Tmax, Mean", "result": 0.88, "unit": "h"}, {"measurement": "half-life", "setting": "[1]; male, Beagle, dog, plasma, N=4, single ODT dose 50.75 mg/dose, male Beagle dogs, read-out: t1/2, Mean (converted)", "result": 5.51, "unit": "h"}, {"measurement": "AUC(0-t)", "setting": "[1]; male, Beagle, dog, plasma, single ODT dose 50.75 mg/dose, male Beagle dogs, read-out: AUC0-24, individual animals", "result": 9020, "unit": "ng·h/mL"}, {"measurement": "AUC(0-inf)", "setting": "[1]; male, Beagle, dog, plasma, single ODT dose 50.75 mg/dose, male Beagle dogs, read-out: AUCinf, individual animals", "result": 9200, "unit": "ng·h/mL"}, {"measurement": "Cmax", "setting": "[1]; male, Beagle, dog, plasma, single ODT dose 50.75 mg/dose, male Beagle dogs, read-out: Cmax, individual animals", "result": 1810, "unit": "ng/mL"}, {"measurement": "Tmax", "setting": "[1]; male, Beagle, dog, plasma, single ODT dose 50.75 mg/dose, male Beagle dogs, read-out: Tmax, individual animals", "result": 1, "unit": "h"}, {"measurement": "half-life", "setting": "[1]; male, Beagle, dog, plasma, single ODT dose 50.75 mg/dose, male Beagle dogs, read-out: t1/2, individual animals (converted)", "result": 4.41, "unit": "h"}, {"measurement": "AUC0-24, individual animals", "setting": "[1]; [2]", "result": "13300 ng·h/mL and 12400 ng·h/mL and 14300 ng·h/mL"}, {"measurement": "AUCinf, individual animals", "setting": "[1]; [2]", "result": "14700 ng·h/mL and 12700 ng·h/mL and 15300 ng·h/mL"}, {"measurement": "Cmax, individual animals", "setting": "[1]; [2]", "result": "2300 ng/mL and 2370 ng/mL and 2510 ng/mL"}, {"measurement": "Tmax, individual animals", "setting": "[1]; [2]", "result": 0.50, "unit": "h"}, {"measurement": "t1/2, individual animals", "setting": "[1]; [2]", "result": "7.51 h and 4.33 h and 5.79 h"}, {"measurement": "Percent F, individual animals", "setting": "[1]; single ODT dose, 4.66 mg/kg dose used for calculation, estimated from nominal dose and estimated AUCinf, 4.66 mg/kg", "result": "80.5% and 116% (2×) and 143%"}, {"measurement": "Tolerability", "setting": "male Beagle dogs", "result": "well tolerated"}]}
